39 compounds from US8088806B2 (Achillion Pharmaceuticals, Inc., priority 2005, dated 2012) can be followed below.

The subject of the experiment is HCV replicon. The experiment is described as follows: Replicon based assay of HCV replication inhibition (NPT ELISA). The experiment is classed as cell-based, Hepatitis C virus. To be noted: Hepatitis C virus, Huh-7, 72 h, Table I; Huh-7 HCV replicon-containing cells, three days; read-out: Activity. Summed up:
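Huh-7 cells carrying a bicistronic HCV replicon (neo, EMCV-IRES-driven NS3–NS5B) treated overnight after seeding with usually 6 concentrations, 10 to 0.03 micromolar, for three days at 37° C without G418. Replication read as NPT level by captured ELISA; matched-DMSO wells and interferon alpha as controls.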
As for `CCCCCOc1ccc(N(C(C)=O)c2nc(-c3ccc(F)cc3)cs2)cc1C(F)(F)F` [compound 116, N-(3-(trifluoromethyl)-4-(pentyloxy)phenyl)-N-(4-(4-fluorophenyl)thiazol-2-yl)acetamide], the EC50 was under 1 µM.

Turning to `CCCCCOc1ccc(Nc2ncc(-c3ccccc3)s2)cc1C(F)(F)F` [compound 117, N-(3-(trifluoromethyl)-4-(pentyloxy)phenyl)-5-phenylthiazol-2-amine], the EC50 is under 1 µM.

With `Fc1ccc(Nc2nc(C(F)(F)F)c(-c3cccc(Cl)c3)s2)cc1` [compound 118, 5-(3-chlorophenyl)-4-(trifluoromethyl)-N-(4-fluorophenyl)thiazol-2-amine], the EC50 was over 10 µM.

Turning to `COc1ccc(Nc2nc(-c3ccccc3)c(-c3ccccc3)s2)cc1` [compound 119, N-(4-methoxyphenyl)-4,5-diphenylthiazol-2-amine], the EC50 was under 1 µM.

Take `CCN(CC)S(=O)(=O)c1ccc(-c2csc(Nc3ccc(Br)cc3)n2)cc1` [compound 120, N-(4-bromophenyl)-4-diethylaminosulfonyl-phenyl-2-amine]: the EC50 is over 10 µM.

On to `COc1ccc(Nc2nc(-c3ccc(OCc4ccc(Br)cc4)cc3)cs2)cc1` [compound 122, 4-(4-(4-bromobenzyloxy)phenyl)-N-(4-methoxyphenyl)thiazol-2-amine], for which the EC50 is over 10 µM.

As to `O=C(Nc1ccc(Cl)c(Cl)c1)c1nc(-c2cccnc2)cs1` [compound 123, N-(3,4-dichlorophenyl)-4-(pyridin-3-yl)thiazole-2-carboxamide], the EC50 is over 10 µM.

`CN(C(=O)c1nc(-c2cccnc2)cs1)c1ccc(Cl)c(Cl)c1` [compound 124, N-(3,4-dichlorophenyl)-N-methyl-4-(pyridin-3-yl)thiazole-2-carboxamide]: the EC50 was over 10 µM.

With `O=C(Nc1ccc(Cl)c(Cl)c1)c1csc(-c2cccnc2)n1` [compound 125, N-(3,4-dichlorophenyl)-2-(pyridin-3-yl)thiazole-4-carboxamide], the EC50 was over 10 µM.

Turning to `CN(C(=O)c1csc(-c2cccnc2)n1)c1ccc(Cl)c(Cl)c1` [compound 126, N-(3,4-dichlorophenyl)-N-methyl-2-(pyridin-3-yl)thiazole-4-carboxamide], the EC50 was over 10 µM.

As for `CCCCCOc1ccc(NC(=O)c2csc(-c3cccnc3)n2)cc1C(F)(F)F` [compound 127, N-(3-(trifluoromethyl)-4-(pentyloxy)phenyl)-2-(pyridin-3-yl)thiazole-4-carboxamide], the EC50 was over 10 µM.

Consider `CCCCCOc1ccc(Nc2nc(C(=O)Nc3ccc(Cl)c(Cl)c3)cs2)cc1C(F)(F)F` [compound 128, 2-(3-(trifluoromethyl)-4-(pentyloxy)phenylamino)-N-(3,4-dichlorophenyl)thiazole-4-carboxamide], for which the EC50 was 1 to 10 µM.

With `CCCCCOc1ccc(Nc2nc(C(=O)N(C)c3ccc(Cl)c(Cl)c3)cs2)cc1C(F)(F)F` [compound 129, 2-(3-(trifluoromethyl)-4-(pentyloxy)phenylamino)-N-(3,4-dichlorophenyl)-N-methylthiazole-4-carboxamide], the EC50 is over 10 µM.

As for `CCCCCOc1ccc(Nc2ncc(C(=O)OC)s2)cc1C(F)(F)F` [compound 130, methyl 2-(3-(trifluoromethyl)-4-(pentyloxy)phenylamino)thiazole-5-carboxylate], the EC50 is over 10 µM.

With `CCCCCOc1ccc(Nc2nc(-c3ccc(O)c(C(N)=O)c3)cs2)cc1C(F)(F)F` [compound 131, 5-(2-(3-(trifluoromethyl)-4-(pentyloxy)phenylamino)thiazol-4-yl)-2-hydroxybenzamide], the EC50 was under 1 µM.

`CCCCCOc1ccc(Nc2nc(-c3ccc(C#N)cc3)cs2)cc1C(F)(F)F` [compound 132, 4-(2-(3-(trifluoromethyl)-4-(pentyloxy)phenylamino)thiazol-4-yl)benzonitrile]: the EC50 is under 1 µM.

As to `CCCCCOc1ccc(Nc2nc(-c3ccc(F)c(F)c3)cs2)cc1C(F)(F)F` [compound 133, N-(3-(trifluoromethyl)-4-(pentyloxy)phenyl)-4-(3,4-difluorophenyl)thiazol-2-amine], the EC50 was under 1 µM.

As to `CCCCCOc1ccc(Nc2nc(-c3ccc(OC)cc3)cs2)cc1C(F)(F)F` [compound 134, N-(3-(trifluoromethyl)-4-(pentyloxy)phenyl)-4-(4-methoxyphenyl)thiazol-2-amine], the EC50 is under 1 µM.

Turning to `CCCCCOc1ccc(Nc2nc(-c3ccc(Cl)cc3)c(-c3ccccc3)s2)cc1C(F)(F)F` [compound 135, 4-(4-chlorophenyl)-N-(3-(trifluoromethyl)-4-(pentyloxy)phenyl)-5-phenylthiazol-2-amine], the EC50 was over 10 µM.

For `CCCCCOc1ccc(Nc2nc(C(C)=O)c(C)s2)cc1C(F)(F)F` [compound 136, 1-(2-(3-(trifluoromethyl)-4-(pentyloxy)phenylamino)-5-methylthiazol-4-yl)ethanone], the EC50 is over 10 µM.

With `CCCCCOc1ccc(Nc2nc(-c3ccc(OCC(=O)O)cc3)c(C)s2)cc1C(F)(F)F` [compound 137, 2-(4-(2-(3-(trifluoromethyl)-4-(pentyloxy)phenylamino)-5-methylthiazol-4-yl)phenoxy)acetic acid], the EC50 was under 1 µM.

With `CCCCCOc1ccc(Nc2nc(-c3ccc(OCC(=O)OCC)cc3)c(C)s2)cc1C(F)(F)F` [compound 139, ethyl 2-(4-(2-(3-(trifluoromethyl)-4-(pentyloxy)phenylamino)-5-methylthiazol-4-yl)phenoxy)acetate], the EC50 was under 1 µM.

For `CCCCCOc1ccc(N(C(=O)c2cccnc2)c2nc(NC(=O)c3cccnc3)cs2)cc1C(F)(F)F` [compound 140, N-(2-(N-(3-(trifluoromethyl)-4-(pentyloxy)phenyl)nicotinamido)-thiazol-4-yl)nicotinamide], the EC50 is under 1 µM.

In the case of `c1ccc(Oc2ccc(Nc3nc(-c4cccnc4)cs3)cc2)cc1` [compound 141, N-(4-phenoxyphenyl)-4-(pyridin-3-yl)thiazol-2-amine], the EC50 is under 1 µM.

Take `Clc1ccc(-c2csc(NC3=NN(c4ccccc4)CC3)n2)cc1` [compound 142, N-(4-(4-chlorophenyl)thiazol-2-yl)-4,5-dihydro-1-phenyl-1H-pyrazol-3-amine]: the EC50 is over 10 µM.

On to `c1ccc(N2CCC(Nc3nc(-c4cccnc4)cs3)=N2)cc1` [compound 143, 4,5-dihydro-1-phenyl-N-(4-(pyridin-3-yl)thiazol-2-yl)-1H-pyrazol-3-amine], for which the EC50 was over 10 µM.

With `Fc1ccc(-c2csc(Nc3ccc(Oc4ccccc4)cc3)n2)cc1` [compound 144, 4-(4-fluorophenyl)-N-(4-phenoxyphenyl)thiazol-2-amine], the EC50 is under 1 µM.

Regarding `Fc1ccc(-c2csc(Nc3nc(-c4ccc(Cl)cc4)cs3)n2)cc1` [compound 145, 4-(4-chlorophenyl)-N-(4-(4-fluorophenyl)thiazol-2-yl)thiazol-2-amine], the EC50 is over 10 µM.

As for `Fc1ccc(-c2csc(NC3=NN(c4ccccc4)CC3)n2)cc1` [compound 146, N-(4-(4-fluorophenyl)thiazol-2-yl)-4,5-dihydro-1-phenyl-1H-pyrazol-amine], the EC50 was over 10 µM.

On to `CCOC(=O)Cc1csc(Nc2nc(-c3ccc(Cl)cc3)cs2)n1` [compound 147, ethyl 2-(2-(4-(4-chlorophenyl)thiazol-2-ylamino)thiazol-4-yl)acetate], for which the EC50 is over 10 µM.

As to `CCCCCOc1ccc(Nc2ncc(C(=O)O)s2)cc1C(F)(F)F` [compound 148, 2-(3-(trifluoromethyl)-4-(pentyloxy)phenylamino)thiazole-5-carboxylic acid], the EC50 was over 10 µM.

Regarding `CCCCCOc1ccc(Nc2ncc(C(=O)Nc3ccc(Cl)cc3)s2)cc1C(F)(F)F` [compound 149, 2-(3-(trifluoromethyl)-4-(pentyloxy)phenylamino)-N-(4-chlorophenyl)thiazole-5-carboxamide], the EC50 was under 1 µM.

Turning to `CCCCCOc1ccc(Nc2ncc(C(=O)Nc3ccc(C#N)cc3)s2)cc1C(F)(F)F` [compound 150, 2-(3-(trifluoromethyl)-4-(pentyloxy)phenylamino)-N-(4-cyanophenyl)thiazole-5-carboxamide], the EC50 is under 1 µM.

As to `CCCCCOc1ccc(Nc2ncc(C(=O)NCc3ccc(S(N)(=O)=O)cc3)s2)cc1C(F)(F)F` [compound 151, N-(4-aminosulfonyl-benzyl)-2-(4-(pentyloxy)-3-(trifluoromethyl)phenylamino)-thiazole-5-carboxamide], the EC50 was over 10 µM.

Turning to `CCCCCOc1ccc(Nc2nc(C(=O)NCc3ccc(S(N)(=O)=O)cc3)cs2)cc1C(F)(F)F` [compound 153, 2-(4-(pentyloxy)-3-(trifluorornethyl)phenylamino)-N-(4-aminosulfonylbenzyl)thiazole-4-carboxamide], the EC50 is 1 to 10 µM.

In the case of `CCCCCOc1ccc(Nc2nc(-c3ccc(C)nc3)cs2)cc1C(F)(F)F` [compound 154, N-(3-(trifluoromethyl)-4-(pentyloxy)phenyl)-4-(6-methylpyridin-3-yl)thiazol-2-amine], the EC50 was under 1 µM.

`CCCCCOc1ccc(Nc2nc(-c3ccc(C(=O)O)cc3)cs2)cc1C(F)(F)F` [compound 155, 4-(2-(3-(trifluoromethyl)-4-(pentyloxy)phenylamino)thiazol-4-yl)benzoic acid]: the EC50 was under 1 µM.

Consider `CCCCCOc1ccc(Nc2nc(-c3cnccn3)cs2)cc1C(F)(F)F` [compound 156, N-(3-(trifluoromethyl)-4-(pentyloxy)phenyl)-4-(pyrazin-2-yl)thiazol-2-amine], for which the EC50 was under 1 µM.

Turning to `CCCCCOc1ccc(N(C)c2nc(-c3cccnc3)cs2)cc1C(F)(F)F` [compound 157, N-(3-(trifluoromethyl)-4-(pentyloxy)phenyl)-N-methyl-4-(pyridin-3-yl)thiazol-2-amine], the EC50 was under 1 µM.
